Test [1] addresses T1, PBP3 from Pseudomonas aeruginosa (PAO1) (Pseudomonas aeruginosa, UniProt G3XD46).
T1 construct: made in house
In words: Bocillin-FL fluorescence polarization competition binding, P. aeruginosa PBP3. Particulars: Binding affinity to P. aeruginosa PBP3; fluorescence polarization competition binding assay using Bocillin-FL; read-out: P. aeruginosa PBP3 Potency. In a few lines: (§1)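 Purified PBPs pre-incubated with inhibitor (E. coli PBP3 1.5 μM, 30 min; P. aeruginosa PBP3 0.75 μM, A. baumannii PBP1a 1 μM and PBP3 0.2 μM, 15 min), then Bocillin-FL 0.1 μM (0.05 μM for PBP1a) added; FP read up to 60 min. EC50 = concentration halving bound Bocillin-FL.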
Background: Fluorescence polarisation rises when a labelled molecule tumbles more slowly, as on binding a larger partner.

Test [2] concerns the target T2, PBP3 from Acinetobacter baumannii (ATCC 19606) (Acinetobacter baumannii, UniProt A0ABX6CK25).
T2 sequence (A0ABX6CK25 64-610): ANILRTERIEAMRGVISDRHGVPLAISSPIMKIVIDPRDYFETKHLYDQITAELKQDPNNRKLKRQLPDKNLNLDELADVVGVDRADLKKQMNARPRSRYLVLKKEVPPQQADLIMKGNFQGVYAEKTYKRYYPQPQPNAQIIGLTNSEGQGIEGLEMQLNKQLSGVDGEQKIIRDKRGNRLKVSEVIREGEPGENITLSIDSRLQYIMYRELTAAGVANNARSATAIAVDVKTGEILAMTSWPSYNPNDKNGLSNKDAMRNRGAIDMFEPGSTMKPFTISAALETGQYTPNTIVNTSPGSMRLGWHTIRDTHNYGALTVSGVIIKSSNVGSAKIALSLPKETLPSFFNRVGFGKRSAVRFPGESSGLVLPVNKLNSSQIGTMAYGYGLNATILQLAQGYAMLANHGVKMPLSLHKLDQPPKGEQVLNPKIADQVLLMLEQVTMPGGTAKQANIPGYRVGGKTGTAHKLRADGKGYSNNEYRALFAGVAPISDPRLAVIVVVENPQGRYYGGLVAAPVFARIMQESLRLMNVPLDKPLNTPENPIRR
In words: Bocillin-FL fluorescence polarization competition binding, A. baumannii PBP3. As to conditions: fluorescence polarization competition binding assay using Bocillin-FL; read-out: A. baumannii PBP3 Potency. A digest of the protocol:
as §1

The test system of a further test is P. aeruginosa ATCC 27853. In words: microbe, parasite or virus in culture. The format is cell-based. Particulars: Pseudomonas aeruginosa, ATCC27853, read-out: Minimum inhibitory concentration, P. aeruginosa ATCC 27853.
The test system of another test is A. baumannii ATCC 17978. In words: microbe, parasite or virus in culture. As to conditions: Acinetobacter baumannii, ATCC17978, read-out: MIC, A. baumannii ATCC 17978. The format is cell-based.
For another test, the system named is P. aeruginosa CDC-0054. In words: microbe, parasite or virus in culture. The class given is cell-based. As to conditions: Pseudomonas aeruginosa, CDC0054, read-out: Minimum inhibitory concentration, P. aeruginosa CDC-0054.
The next test concerns P. aeruginosa CDC-0090. In words: microbe, parasite or virus in culture. The format is cell-based. As to conditions: Pseudomonas aeruginosa, CDC0090, read-out: Minimum inhibitory concentration, P. aeruginosa CDC-0090.
Another test deals with A. baumannii 1258916. In words: microbe, parasite or virus in culture. The class given is cell-based, Acinetobacter baumannii. Particulars: Acinetobacter baumannii, 1258916, read-out: MIC, A. baumannii 1258916.
For the next test, the system named is A. baumannii CDC-0036. In words: microbe, parasite or virus in culture. The format is cell-based. Particulars: Acinetobacter baumannii, CDC0036, read-out: MIC, A. baumannii CDC-0036.
A further test has as its system A. baumannii CDC-0045. In words: microbe, parasite or virus in culture. The class given is cell-based. Particulars: Acinetobacter baumannii, CDC0045, read-out: MIC, A. baumannii CDC-0045.
The test system of test [3] is B. thailandensis ATCC 700388. In words: microbe, parasite or virus in culture. The class given is cell-based. As to conditions: Burkholderia thailandensis, ATCC700388, read-out: Minimum inhibitory concentration (MIC), B. thailandensis ATCC 700388.

The text below walks through data of patent publication US20240270762A1, “PENICILLIN-BINDING PROTEIN INHIBITORS” (priority 2021, published 2024).

≈ marks a conversion by molar mass, not a printed value.

T1 sequence (G3XD46 whole entry): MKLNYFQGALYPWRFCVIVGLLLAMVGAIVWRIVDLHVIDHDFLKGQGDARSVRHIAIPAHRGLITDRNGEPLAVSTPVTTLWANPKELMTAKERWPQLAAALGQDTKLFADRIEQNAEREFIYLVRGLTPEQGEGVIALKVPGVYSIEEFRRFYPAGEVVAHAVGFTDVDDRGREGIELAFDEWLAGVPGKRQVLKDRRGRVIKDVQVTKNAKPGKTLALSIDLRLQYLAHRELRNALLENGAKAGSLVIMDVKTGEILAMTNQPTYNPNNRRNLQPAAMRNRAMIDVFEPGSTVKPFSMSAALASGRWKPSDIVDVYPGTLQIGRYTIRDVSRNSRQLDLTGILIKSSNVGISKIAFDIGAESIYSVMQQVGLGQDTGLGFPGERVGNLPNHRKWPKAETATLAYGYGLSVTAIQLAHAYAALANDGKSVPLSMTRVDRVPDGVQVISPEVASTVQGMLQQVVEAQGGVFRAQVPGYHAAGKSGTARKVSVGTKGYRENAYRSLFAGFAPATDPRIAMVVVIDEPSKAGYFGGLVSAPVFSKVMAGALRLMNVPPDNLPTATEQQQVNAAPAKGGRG

Take `O=C(NCCCS(=O)(=O)N1CCN(C(=O)NC(C(=O)N[C@H]2Cc3ccc(F)c(C(=O)O)c3OB2O)c2cc(F)c(O)c(O)c2Cl)C1=O)Nc1cccnc1` (stereo partly drawn) [Example 278, (3R)-3-(2-(2-chloro-5-fluoro-3,4-dihydroxyphenyl)-2-(2-oxo-3-((3-(3-(pyridin-3-yl)ureido)propyl)sulfonyl)imidazolidine-1-carboxamido)acetamido)-7-fluoro-2-hydroxy-3,4-dihydro-2H-benzo[e][1,2]oxaborinine-8-carboxylic acid]: the IC50 in [1] and in test [2] was < 10 µM each time. The MIC is 2 to 4 µg/mL (≈ 2.51 to 5.03 µM) in the test with P. aeruginosa ATCC 27853; < 1 µg/mL in the test on A. baumannii ATCC 17978; 2 to 4 µg/mL (≈ 2.51 to 5.03 µM) in the test with P. aeruginosa CDC-0054; 2 to 4 µg/mL (≈ 2.51 to 5.03 µM) with P. aeruginosa CDC-0090; < 1 µg/mL with A. baumannii 1258916; 2 to 4 µg/mL (≈ 2.51 to 5.03 µM) with A. baumannii CDC-0036. The MIC in the test on A. baumannii CDC-0045 is < 1 µg/mL; in test [3] it was 2 to 4 µg/mL (≈ 2.51 to 5.03 µM).
For the compound `O=C(NCCN1CCN(C(=O)N[C@@H](C(=O)N[C@H]2Cc3ccc(F)c(C(=O)O)c3OB2O)c2cc(F)c(O)c(O)c2Cl)C1=O)Nc1ccc(O)cc1` [Example 279, (R)-3-((R)-2-(2-chloro-5-fluoro-3,4-dihydroxyphenyl)-2-(3-(2-(3-(4-hydroxyphenyl)ureido)ethyl)-2-oxoimidazolidine-1-carboxamido)acetamido)-7-fluoro-2-hydroxy-3,4-dihydro-2H-benzo[e][1,2]oxaborinine-8-carboxylic acid], the IC50 in [1] and in test [2] was < 10 µM each time. Besides, the MIC is 2 to 4 µg/mL (≈ 2.73 to 5.46 µM) in the test on P. aeruginosa ATCC 27853; < 1 µg/mL in the test on A. baumannii ATCC 17978; < 1 µg/mL with P. aeruginosa CDC-0054; 2 to 4 µg/mL (≈ 2.73 to 5.46 µM) with P. aeruginosa CDC-0090; < 1 µg/mL with A. baumannii 1258916; < 1 µg/mL in the test on A. baumannii CDC-0036. Moreover, the MIC (with A. baumannii CDC-0045; in [3]) was < 1 µg/mL each time.
Turning to `O=C(NCCCN1CCN(C(=O)NC(C(=O)N[C@H]2Cc3ccc(F)c(C(=O)O)c3OB2O)c2cc(F)c(O)c(O)c2Cl)C1=O)c1ccc(O)cc1` (stereo partly drawn) [Example 280, (3R)-3-(2-(2-chloro-5-fluoro-3,4-dihydroxyphenyl)-2-(3-(3-(4-hydroxybenzamido)propyl)-2-oxoimidazolidine-1-carboxamido)acetamido)-7-fluoro-2-hydroxy-3,4-dihydro-2H-benzo[e][1,2]oxaborinine-8-carboxylic acid], the IC50 in test [1] and in test [2] was < 10 µM each time. Also, the MIC in the test with P. aeruginosa ATCC 27853 was 2 to 4 µg/mL (≈ 2.73 to 5.47 µM); with A. baumannii ATCC 17978, < 1 µg/mL; in the test with P. aeruginosa CDC-0054, 2 to 4 µg/mL (≈ 2.73 to 5.47 µM); in the test on P. aeruginosa CDC-0090, 2 to 4 µg/mL (≈ 2.73 to 5.47 µM); with A. baumannii 1258916 it was < 1 µg/mL; in the test on A. baumannii CDC-0036, 2 to 4 µg/mL (≈ 2.73 to 5.47 µM). Moreover, the MIC was < 1 µg/mL with A. baumannii CDC-0045 and 2 to 4 µg/mL (≈ 2.73 to 5.47 µM) in [3].
Take `O=C(NCCCN1CCN(C(=O)NC(C(=O)N[C@H]2Cc3ccc(F)c(C(=O)O)c3OB2O)c2cc(F)c(O)c(O)c2Cl)C1=O)c1cccnc1` (stereo partly drawn) [Example 281, (3R)-3-(2-(2-chloro-5-fluoro-3,4-dihydroxyphenyl)-2-(3-(3-(nicotinamido)propyl)-2-oxoimidazolidine-1-carboxamido)acetamido)-7-fluoro-2-hydroxy-3,4-dihydro-2H-benzo[e][1,2]oxaborinine-8-carboxylic acid]: the IC50 in test [1] and in test [2] was < 10 µM in each case. Besides, the MIC with P. aeruginosa ATCC 27853 is 2 to 4 µg/mL (≈ 2.79 to 5.58 µM); in the test with A. baumannii ATCC 17978, < 1 µg/mL; in the test on P. aeruginosa CDC-0054 it was 8 to 16 µg/mL (≈ 11.2 to 22.3 µM); in the test on P. aeruginosa CDC-0090, 2 to 4 µg/mL (≈ 2.79 to 5.58 µM); in the test with A. baumannii 1258916, < 1 µg/mL; with A. baumannii CDC-0036, 2 to 4 µg/mL (≈ 2.79 to 5.58 µM). The MIC in the test with A. baumannii CDC-0045 is < 1 µg/mL; in [3] it was 2 to 4 µg/mL (≈ 2.79 to 5.58 µM).
